Results on two substances are retold here after paper PMC5103170, “Total Synthesis, Structure, and Biological Activity of Adenosylrhodibalamin, the Non‐Natural Rhodium Homologue of Coenzyme B12” (Angewandte Chemie (International Ed. in English), 2016).

This experiment has as its target T1, 1,2-propanediol dehydratase (PduCDE) (Citrobacter freundii, UniProt P0DUM7+P0DUM8).
T1 construct: gene pduC; purified enzyme, alpha2beta2gamma2; construct details only in Supporting Information; with Propanediol dehydratase small subunit
T1 sequence (P0DUM7 1-554): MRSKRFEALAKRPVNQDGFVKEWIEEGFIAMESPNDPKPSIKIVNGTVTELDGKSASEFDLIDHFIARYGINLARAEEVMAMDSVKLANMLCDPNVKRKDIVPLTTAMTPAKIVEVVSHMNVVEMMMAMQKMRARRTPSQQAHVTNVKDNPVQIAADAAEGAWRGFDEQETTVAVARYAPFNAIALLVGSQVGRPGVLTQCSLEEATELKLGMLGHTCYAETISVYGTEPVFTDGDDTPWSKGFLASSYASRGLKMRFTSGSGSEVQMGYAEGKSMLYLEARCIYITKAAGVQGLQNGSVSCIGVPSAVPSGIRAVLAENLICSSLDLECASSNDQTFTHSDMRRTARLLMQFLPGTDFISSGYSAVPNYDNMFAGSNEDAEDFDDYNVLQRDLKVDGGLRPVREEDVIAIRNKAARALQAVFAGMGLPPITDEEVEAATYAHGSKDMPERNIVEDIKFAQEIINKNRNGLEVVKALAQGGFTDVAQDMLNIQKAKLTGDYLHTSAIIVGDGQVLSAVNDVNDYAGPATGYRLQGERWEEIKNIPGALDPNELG
T1 sequence (P0DUM8 1-224): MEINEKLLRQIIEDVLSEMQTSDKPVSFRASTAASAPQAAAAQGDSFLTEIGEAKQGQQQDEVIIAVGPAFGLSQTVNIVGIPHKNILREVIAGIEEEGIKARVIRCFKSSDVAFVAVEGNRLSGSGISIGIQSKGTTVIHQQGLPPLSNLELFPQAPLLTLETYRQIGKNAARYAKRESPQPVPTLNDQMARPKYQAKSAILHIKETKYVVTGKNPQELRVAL
T1 sequence (P0DUM9 1-172 partner): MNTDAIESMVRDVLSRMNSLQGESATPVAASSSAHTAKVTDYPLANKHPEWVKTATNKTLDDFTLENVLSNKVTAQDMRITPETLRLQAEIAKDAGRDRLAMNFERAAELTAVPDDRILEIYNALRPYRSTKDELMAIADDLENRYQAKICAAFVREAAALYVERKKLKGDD
As to the kind of experiment: enzyme inhibition kinetics, non-linear regression. It is filed as biochemical. The following applies: competitive with AdoCbl.

pKi: −log10 of the molar value.

Consider AdoRbl, for which the pKi – broadly, −log10 of the Ki, conventionally taken in molar units – (inactive as pseudo-coenzyme) is 5.16.

On to vitamin B12, for which the negative logarithm of the Ki (pKi) was 5.60.
